From patent US9387204B2, “Fused bicyclic imidazoles” (BAYER INTELLECTUAL PROPERTY GmbH, priority 2007, dated 2016)

System: A549 cells
Experiment: Cellular proliferation/cytotoxicity assay (Alamar Blue), A549 cells
Settings: Homo sapiens, A549, 72 h, read-out: Anti-proliferative/Cytotoxic activity (A549 cells)

For `COc1cccn2c(-c3ccccc3)c(-c3ccc(CN4CCC(c5n[nH]c(-c6ccccn6)n5)CC4)cc3)nc12` [Example 13, 8-methoxy-3-phenyl-2-(4-{[4-(5-pyridin-2-yl-1,2,4-triazol-3-yl)piperidin-1-yl]methyl}phenyl)imidazo[1,2-a]pyridine], which IC50 is on record?
The IC50 was < 10 µM.

How did the IC50 turn out when `COc1ccc(-c2c(-c3ccc(CN4CCC(c5n[nH]c(-c6ccccn6)n5)CC4)cc3)nc3ncccn23)cc1` [Example 20, 3-(4-methoxyphenyl)-2-(4-{[4-(5-pyridin-2-yl-1,2,4-triazol-3-yl)piperidin-1-yl]methyl}phenyl)imidazo[1,2-a]pyrimidine] was run?
Its IC50 is > 10 µM.

How did the IC50 turn out when `Ic1cnc2nc(-c3ccc(CN4CCC(c5n[nH]c(-c6ccccn6)n5)CC4)cc3)c(-c3ccccc3)n2c1` [Example 23, 6-iodo-3-phenyl-2-(4-{[4-(5-pyridin-2-yl-1,2,4-triazol-3-yl)piperidin-1-yl]methyl}phenyl)imidazo[1,2-a]pyrimidine] was run?
The IC50 was > 10 µM.

Which IC50 does the source give for `Clc1ccc2nc(-c3ccc(CN4CCC(c5nnc(-c6ccccn6)[nH]5)CC4)cc3)c(-c3ccccc3)n2c1` [Example 7, 6-chloro-3-phenyl-2-(4-{[4-(5-pyridin-2-yl-4H-1,2,4-triazol-3-yl)piperidin-1-yl]methyl}phenyl)imidazo[1,2-a]pyridine] here?
The IC50 was < 10 µM.

For `COC(O)c1cn2c(-c3ccccc3)c(-c3ccc(CN4CCC(c5n[nH]c(-c6ccccn6)n5)CC4)cc3)nc2s1` (stereo not drawn) [Example 126, methoxy[5-phenyl-6-(4-{[4-(5-pyridin-2-yl-1H-1,2,4-triazol-3-yl)piperidin-1-yl]methyl}phenyl)imidazo[2,1-b][1,3]thiazol-2-yl]methanol], which IC50 is on record?
Its IC50 is < 10 µM.

Same assay, conditions: read-out: Anti-proliferative/Cytotoxic activity (A549 cells); A549 cells, 72 h, Alamar Blue (Resazurin)

`Cc1ccc(-c2nnc(C3CCN(Cc4ccc(-c5nc6sccn6c5-c5ccccc5)cc4)CC3)[nH]2)nc1` [Example 73, ′6-[4-({4-[5-(5-methylpyridin-2-yl)-4H-1,2,4-triazol-3-yl]piperidin-1-yl}methyl)phenyl]-5-phenylimidazo[2,1-b][1,3]thiazole] was tested. Which IC50 did it give?
The IC50 was < 10 µM.

Which IC50 does the source give for `c1ccc(-c2c(-c3ccc(CN4CCC(c5nnc(-c6ccncc6)[nH]5)CC4)cc3)nc3ccccn23)cc1` [Example 58, ′3-phenyl-2-(4-{[4-(5-pyridin-4-yl-4H-1,2,4-triazol-3-yl)piperidin-1-yl]methyl}phenyl)imidazo[1,2-a]pyridine] here?
Its IC50 is < 10 µM.

Which IC50 does the source give for `c1ccc(-c2c(-c3ccc(CN4CCC(c5nnc(-c6ncccn6)[nH]5)CC4)cc3)nc3sccn23)cc1` [Example 81, ′5-phenyl-6-(4-{[4-(5-pyrimidin-2-yl-4H-1,2,4-triazol-3-yl)piperidin-1-yl]methyl}phenyl)imidazo[2,1-b][1,3]thiazole] here?
The IC50 was > 10 µM.

How did the IC50 turn out when `Cc1ccc2nc(-c3ccc(CN4CCC(c5nnc(-c6cccs6)[nH]5)CC4)cc3)c(-c3ccccc3)n2n1` [Example 99, ′6-methyl-3-phenyl-2-[4-({4-[5-(2-thienyl)-4H-1,2,4-triazol-3-yl]piperidin-1-yl}methyl)phenyl]imidazo[1,2-b]pyridazine] was run?
Its IC50 is < 10 µM.

How did the IC50 turn out when `c1ccc(-c2c(-c3ccc(CN4CCC(c5nnc(-c6cccs6)[nH]5)CC4)cc3)nc3scnn23)cc1` [Example 101, ′5-phenyl-6-[4-({4-[5-(2-thienyl)-4H-1,2,4-triazol-3-yl]piperidin-1-yl}methyl)phenyl]imidazo[2,1-b][1,3,4]thiadiazole] was run?
Its IC50 is < 10 µM.

Which IC50 does the source give for `c1ccc(-c2c(-c3ccc(CN4CCC(c5nnc(-c6cccs6)[nH]5)CC4)cc3)nc3sccn23)cc1` [Example 100, ′5-phenyl-6-[4-({4-[5-(2-thienyl)-4H-1,2,4-triazol-3-yl]piperidin-1-yl}methyl)phenyl]imidazo[2,1-b][1,3]thiazole] here?
Its IC50 is < 10 µM.

How did the IC50 turn out when `c1ccc(-c2c(-c3ccc(CN4CCC(c5nnc(-c6ccncc6)[nH]5)CC4)cc3)nc3scnn23)cc1` [Example 60, ′5-phenyl-6-(4-{[4-(5-pyridin-4-yl-4H-1,2,4-triazol-3-yl)piperidin-1-yl]methyl}phenyl)imidazo[2,1-b][1,3,4]thiadiazole] was run?
Its IC50 is < 10 µM.
